Source: PubChem BioAssay (NCI)
“And” between values parts separate entries of the source, which are not always exact repeats. Equal values may be shown once.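 Five concentrations, 48 hours, 96-well plates. GI50 = concentration required for 50% inhibition of growth. Definition used: TGI = concentration required for complete inhibition of growth.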

Assays:
Experiment in all cases: NCI tumour cell line growth inhibition, 48 h
[1] = tested on: CAKI-1 renal
[2] = tested on: 786-0 renal
[3] = tested on: SK-MEL-2 melanoma
[4] = tested on: ACHN renal
[5] = tested on: NCI/ADR-RES ovarian
[6] = tested on: HOP-62 NSCLC
[7] = tested on: HS 578T breast
[8] = tested on: HOP-92 NSCLC
[9] = tested on: CCRF-CEM leukemia
[10] = tested on: U251 CNS

Compound	GI50 [1]	TGI [1]	GI50 [2]	TGI [2]	GI50 [3]	TGI [3]	GI50 [4]	TGI [4]	GI50 [5]	TGI [5]	TGI [6]	GI50 [7]	TGI [7]	GI50 [8]	TGI [8]	GI50 [9]	TGI [9]	GI50 [10]	TGI [10]	GI50 [6]
CC(C)CC1C(=O)N2CCC[C@H]2C2(O)O[C@](NC(=O)C3C=C4c5cccc6[nH]c(Br)c(c56)C[C@H]4N(C)C3)(C(C)C)C(=O)N12 (stereo partly specified)	2810 nM	> 100 µM	25.7 µM	> 100 µM	22.6 µM	> 100 µM	8.9 µM	> 100 µM	8.29 µM	> 100 µM	> 100 µM	68900 nM	> 100 µM	1910 nM	> 100 µM	8530 nM	> 100 µM	9400 nM	> 100 µM	–
CN1CCC(CNc2ccc3ncc(-c4cccc(OC(F)(F)F)c4)n3n2)CC1	1470 nM and 1830 nM	3.57 µM and > 10 µM	1.78 µM and 1.69 µM	3.45 µM and 4.06 µM	1.64 µM and 1.76 µM	3.25 µM and 4.34 µM	2.14 µM and 3.05 µM	6.05 µM and > 10 µM	2.84 µM and 5.26 µM	10.5 µM and > 10 µM	4.25 µM and > 10 µM	1660 nM and 1630 nM	4.5 µM and 7.17 µM	1200 nM and 383 nM	3.81 µM and 3.66 µM	3360 nM and 2030 nM	15.9 µM and 5.78 µM	1600 nM and 1440 nM	3.23 µM and 2.97 µM	1.84 µM and 3.44 µM
COC(=O)[C@@]1(Cc2ccccc2)[C@H]2c3cc(C(=O)N4CCCC4)n(Cc4ccc(OC)c(OC)c4)c3C[C@H]2CN1C(=O)c1ccccc1	14000 nM	> 50 µM	13.7 µM	> 50 µM	8.76 µM	18.7 µM	17.8 µM	> 50 µM	11.4 µM	35.4 µM	17.8 µM	6560 nM	19.4 µM	13300 nM	28 µM	16400 nM	> 50 µM	13000 nM	40.7 µM	8.34 µM
C[C@H](N)C(=O)N[C@@H]1[C@H]2C(=C(O)C[C@@H](O)[C@@H]2O)C(=O)O[C@]1(C)C(Cl)Cl	430 nM	–	0.246 µM	10.9 µM and 1.8 µM	0.308 µM	1.49 µM and 0.958 µM	0.309 µM	5.21 µM and 1.58 µM	–	29.1 µM	1.85 µM and 1.29 µM	–	0.634 µM	223 nM	1.19 µM and 0.736 µM	108 nM and 87 nM	2.25 µM and 1.58 µM	171 nM	3.08 µM and 2.29 µM	0.297 µM
O=C(CSc1nc2ccccc2nc1-c1ccccc1)Nc1ccc(Cl)cc1	12500 nM	38.1 µM	16 µM	32.3 µM	51.7 µM	> 100 µM	12.3 µM	47.1 µM	24.9 µM	91.5 µM	20.4 µM	16100 nM	70 µM	15400 nM	63.5 µM	> 100000 nM	> 100 µM	23600 nM	67.7 µM	5.28 µM
CCN(CC)CCCC(C)Nc1cc(-c2ccc(C(F)(F)F)cc2)c(C#N)c2nc3ccccc3n12 (stereo unspecified)	2890 nM	12.5 µM	1.51 µM	2.93 µM	2.27 µM	4.15 µM	1.38 µM	2.87 µM	1.98 µM	4.44 µM	7.18 µM	1820 nM	4.86 µM	1660 nM	3.43 µM	846 nM	> 100 µM	2040 nM	4.16 µM	2.2 µM
COc1ccccc1-c1cc(/C=C2\C(=O)Nc3ncc(Br)cc32)cc(Br)c1O	10100 nM	> 25 µM	12.2 µM	> 25 µM	8.89 µM	> 25 µM	11.7 µM	> 25 µM	14.5 µM	> 25 µM	> 25 µM	7670 nM	> 25 µM	1210 nM	> 25 µM	9760 nM	> 25 µM	12700 nM	> 25 µM	22.7 µM
COc1ccc(CCN2CCCN3C2=Nc2ccccc2S3(=O)=O)cc1	730 nM	> 100 µM	0.651 µM	> 100 µM	0.521 µM	> 100 µM	0.736 µM	> 100 µM	0.3 µM	6.8 µM	> 100 µM	577 nM	> 100 µM	348 nM	13.4 µM	444 nM	> 100 µM	388 nM	> 100 µM	0.556 µM
C=CC(=O)N1C/C(=C\c2ccccc2)C(=O)/C(=C/c2ccccc2)C1	–	6.88 µM	–	2.54 µM	–	4.81 µM	–	4.53 µM	–	> 27.1 µM	6.28 µM	2220 nM	14.8 µM	–	8.64 µM	927 nM	3.55 µM	376 nM	2.62 µM	–
CC(C)CCSC1=CC(=O)c2ccccc2C1=O	10300 nM	21.9 µM	19.8 µM	34.4 µM	6.73 µM	17.3 µM	1.84 µM	5.69 µM	8.75 µM	40.1 µM	> 59.1 µM	5500 nM	30.7 µM	1200 nM	2.62 µM	215 nM	0.62 µM	8110 nM	21.5 µM	23.5 µM
N=C(N)/N=C(\N)c1c(-c2cc(O)ccc2O)nc2sccn12	20100 nM	39.3 µM	19.9 µM	38.9 µM	44.9 µM	> 100 µM	20.8 µM	40.5 µM	82.3 µM	> 100 µM	84.6 µM	> 100000 nM	> 100 µM	18300 nM	55.3 µM	10300 nM	33.7 µM	46100 nM	> 100 µM	29.4 µM
NC(=NCCCC1(c2ccccc2)CCCC1)Nc1ccc(Cl)cc1	1930 nM	3.94 µM	1.68 µM	3.13 µM	1.95 µM	3.52 µM	–	–	1.77 µM	3.34 µM	3.36 µM	2190 nM	5.03 µM	1360 nM	2.85 µM	2180 nM	6.29 µM	1690 nM	3.11 µM	1.69 µM
CO/[N+]([O-])=C\C(=O)N/C=C/C(=O)O	–	> 100 µM	–	> 100 µM	–	–	–	> 100 µM	–	> 100 µM	> 100 µM	–	> 100 µM	–	> 100 µM	–	> 100 µM	–	> 100 µM	–
